The record followed here is article PMC9851200, “Multiparameter phenotypic screening for endogenous TFEB and TFE3 translocation identifies novel chemical series modulating lysosome function” (Autophagy, 2022).

What all share (format): binding
In experiment [1] the target is T1, kinases (KINOMEscan panel) (Homo sapiens, UniProt Q9UKI8).
T1 sequence (Q9UKI8 1-766): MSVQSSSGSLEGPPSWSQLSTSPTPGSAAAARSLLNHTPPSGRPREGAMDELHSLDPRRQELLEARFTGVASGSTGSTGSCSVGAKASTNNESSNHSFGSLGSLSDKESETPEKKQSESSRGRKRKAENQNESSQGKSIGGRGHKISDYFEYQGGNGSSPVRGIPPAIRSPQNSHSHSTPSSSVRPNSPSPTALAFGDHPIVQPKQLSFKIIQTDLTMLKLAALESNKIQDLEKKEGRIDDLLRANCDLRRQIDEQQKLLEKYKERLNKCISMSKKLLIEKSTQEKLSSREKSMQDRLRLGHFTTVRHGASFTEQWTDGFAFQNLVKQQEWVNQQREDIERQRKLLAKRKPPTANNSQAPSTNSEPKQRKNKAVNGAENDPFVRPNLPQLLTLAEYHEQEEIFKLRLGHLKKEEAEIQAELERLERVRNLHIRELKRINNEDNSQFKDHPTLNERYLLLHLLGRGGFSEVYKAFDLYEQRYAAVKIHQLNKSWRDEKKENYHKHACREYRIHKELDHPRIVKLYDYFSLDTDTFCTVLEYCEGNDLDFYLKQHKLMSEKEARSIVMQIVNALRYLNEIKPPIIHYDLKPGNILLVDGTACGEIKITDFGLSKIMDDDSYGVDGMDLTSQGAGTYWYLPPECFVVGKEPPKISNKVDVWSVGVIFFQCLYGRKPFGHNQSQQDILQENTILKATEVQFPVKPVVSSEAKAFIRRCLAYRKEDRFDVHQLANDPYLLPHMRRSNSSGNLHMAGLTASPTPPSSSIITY
The settings on record: kinase TLK1; NEW KINOMEscan.

Experiment [2] concerns the target kinases (KINOMEscan panel) (Homo sapiens, UniProt O60674). Particulars: JAK2(JH1domain-catalytic); NEW KINOMEscan.
In experiment [3] the target is kinases (KINOMEscan panel) (Homo sapiens, UniProt P21860). The settings on record: ERBB3; NEW KINOMEscan.
Experiment [4] concerns the target kinases (KINOMEscan panel) (Homo sapiens, UniProt Q13627). Particulars: NEW KINOMEscan.
Experiment [5] deals with kinases (KINOMEscan panel) (Homo sapiens, UniProt P08922). Particulars: kinase ROS1; NEW KINOMEscan.
Experiment [6] addresses kinases (KINOMEscan panel) (Homo sapiens, UniProt Q9NQU5). The settings on record: PAK6; NEW KINOMEscan.
The target of experiment [7] is kinases (KINOMEscan panel) (Homo sapiens, UniProt Q9BWU1). Particulars: kinase CDK19; NEW KINOMEscan.
kinases (KINOMEscan panel) (Homo sapiens, UniProt Q9BWU1), sequence (Q9BWU1 whole entry): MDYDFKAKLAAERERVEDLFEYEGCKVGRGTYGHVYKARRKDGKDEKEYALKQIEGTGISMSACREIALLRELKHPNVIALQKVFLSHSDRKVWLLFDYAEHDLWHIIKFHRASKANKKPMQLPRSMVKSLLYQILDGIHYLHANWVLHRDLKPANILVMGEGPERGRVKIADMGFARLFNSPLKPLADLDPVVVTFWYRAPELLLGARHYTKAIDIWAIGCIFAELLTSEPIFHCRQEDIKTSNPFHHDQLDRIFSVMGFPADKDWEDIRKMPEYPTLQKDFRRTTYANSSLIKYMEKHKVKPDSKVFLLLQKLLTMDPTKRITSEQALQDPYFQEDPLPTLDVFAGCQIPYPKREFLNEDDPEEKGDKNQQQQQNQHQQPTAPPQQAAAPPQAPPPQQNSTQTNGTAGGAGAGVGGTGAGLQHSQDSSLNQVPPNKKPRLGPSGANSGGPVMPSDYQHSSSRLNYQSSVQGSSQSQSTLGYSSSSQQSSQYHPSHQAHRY
In experiment [8] the target is T2, kinases (KINOMEscan panel) (Homo sapiens, UniProt P35626).
T2 sequence (P35626 1-688): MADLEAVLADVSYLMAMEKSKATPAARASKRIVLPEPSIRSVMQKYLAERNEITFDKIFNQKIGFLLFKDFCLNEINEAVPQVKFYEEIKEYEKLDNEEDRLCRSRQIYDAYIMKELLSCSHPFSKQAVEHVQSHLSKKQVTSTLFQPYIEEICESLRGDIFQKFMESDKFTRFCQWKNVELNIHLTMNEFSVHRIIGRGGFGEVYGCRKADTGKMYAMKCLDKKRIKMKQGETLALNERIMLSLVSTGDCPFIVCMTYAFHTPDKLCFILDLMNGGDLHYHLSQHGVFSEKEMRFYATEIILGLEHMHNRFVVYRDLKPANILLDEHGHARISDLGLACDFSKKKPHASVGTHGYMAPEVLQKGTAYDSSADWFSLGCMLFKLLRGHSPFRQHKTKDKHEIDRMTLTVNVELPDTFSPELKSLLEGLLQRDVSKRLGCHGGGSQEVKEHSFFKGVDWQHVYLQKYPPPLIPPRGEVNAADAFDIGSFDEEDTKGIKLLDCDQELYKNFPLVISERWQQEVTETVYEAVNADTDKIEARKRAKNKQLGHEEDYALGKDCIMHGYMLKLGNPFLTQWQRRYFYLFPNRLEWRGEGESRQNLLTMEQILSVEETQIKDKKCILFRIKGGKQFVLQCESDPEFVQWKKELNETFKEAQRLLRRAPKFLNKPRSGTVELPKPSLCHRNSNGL
The settings on record: GRK3; NEW KINOMEscan.

The target of experiment [9] is T3, kinases (KINOMEscan panel) (Homo sapiens, UniProt Q9UQB9).
T3 sequence (Q9UQB9 1-309): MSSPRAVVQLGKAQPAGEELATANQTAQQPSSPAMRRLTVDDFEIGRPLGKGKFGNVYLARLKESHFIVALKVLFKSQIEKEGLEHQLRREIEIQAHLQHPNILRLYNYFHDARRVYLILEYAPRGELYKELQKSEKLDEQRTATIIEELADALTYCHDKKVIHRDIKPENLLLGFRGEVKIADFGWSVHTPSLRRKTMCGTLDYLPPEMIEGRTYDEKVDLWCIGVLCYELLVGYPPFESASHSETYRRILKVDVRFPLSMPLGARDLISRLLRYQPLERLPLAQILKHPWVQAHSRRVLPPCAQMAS
The settings on record: AURKC; NEW KINOMEscan.

Experiment [10] deals with kinases (KINOMEscan panel) (Homo sapiens, UniProt P10721, V559D/V654A). The settings on record: kinase KIT(V559D,V654A); NEW KINOMEscan.
kinases (KINOMEscan panel) (Homo sapiens, UniProt P10721, V559D/V654A), sequence (P10721 26-976 V559D/V654A): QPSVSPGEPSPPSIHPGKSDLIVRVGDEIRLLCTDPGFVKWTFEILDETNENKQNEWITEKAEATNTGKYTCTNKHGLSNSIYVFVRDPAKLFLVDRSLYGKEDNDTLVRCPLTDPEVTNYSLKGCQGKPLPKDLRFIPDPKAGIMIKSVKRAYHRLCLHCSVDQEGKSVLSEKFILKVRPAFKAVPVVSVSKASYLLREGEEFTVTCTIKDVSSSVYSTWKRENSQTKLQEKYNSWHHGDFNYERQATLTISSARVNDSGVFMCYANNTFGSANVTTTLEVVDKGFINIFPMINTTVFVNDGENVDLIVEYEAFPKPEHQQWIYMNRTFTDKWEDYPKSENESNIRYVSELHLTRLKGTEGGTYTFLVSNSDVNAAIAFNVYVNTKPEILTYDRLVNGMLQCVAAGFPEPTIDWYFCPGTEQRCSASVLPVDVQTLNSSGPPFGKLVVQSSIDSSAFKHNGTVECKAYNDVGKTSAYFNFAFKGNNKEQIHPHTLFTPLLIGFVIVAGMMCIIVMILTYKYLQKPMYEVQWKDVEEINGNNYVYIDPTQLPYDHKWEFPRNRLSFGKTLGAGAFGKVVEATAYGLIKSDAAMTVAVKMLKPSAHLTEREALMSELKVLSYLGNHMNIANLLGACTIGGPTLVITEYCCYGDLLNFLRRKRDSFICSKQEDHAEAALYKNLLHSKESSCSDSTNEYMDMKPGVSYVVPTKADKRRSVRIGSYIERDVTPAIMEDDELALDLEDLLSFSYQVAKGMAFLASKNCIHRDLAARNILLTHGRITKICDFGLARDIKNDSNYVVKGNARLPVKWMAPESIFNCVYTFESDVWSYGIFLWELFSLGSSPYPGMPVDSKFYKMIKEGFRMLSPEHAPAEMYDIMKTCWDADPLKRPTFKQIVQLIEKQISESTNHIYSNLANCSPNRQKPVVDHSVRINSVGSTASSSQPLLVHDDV
Experiment [11] deals with kinases (KINOMEscan panel) (Homo sapiens, UniProt P53355). The settings on record: kinase DAPK1; NEW KINOMEscan.
Experiment [12] deals with kinases (KINOMEscan panel) (Homo sapiens, UniProt P00519, Q252H). Particulars: NEW KINOMEscan; for KINOMEscan ABL1(Q252H)-nonphosphorylated: kinase ABL1(Q252H)-nonphosphorylated; for KINOMEscan ABL1(Q252H)-phosphorylated: kinase ABL1(Q252H)-phosphorylated.
Experiment [13] deals with kinases (KINOMEscan panel) (Homo sapiens, UniProt P30291). The settings on record: WEE1; NEW KINOMEscan.
Experiment [14] concerns the target kinases (KINOMEscan panel) (Homo sapiens, UniProt Q5S007, G2019S). Particulars: NEW KINOMEscan.

kinases (KINOMEscan panel) (Homo sapiens, UniProt Q9NQU5), sequence (Q9NQU5 whole entry): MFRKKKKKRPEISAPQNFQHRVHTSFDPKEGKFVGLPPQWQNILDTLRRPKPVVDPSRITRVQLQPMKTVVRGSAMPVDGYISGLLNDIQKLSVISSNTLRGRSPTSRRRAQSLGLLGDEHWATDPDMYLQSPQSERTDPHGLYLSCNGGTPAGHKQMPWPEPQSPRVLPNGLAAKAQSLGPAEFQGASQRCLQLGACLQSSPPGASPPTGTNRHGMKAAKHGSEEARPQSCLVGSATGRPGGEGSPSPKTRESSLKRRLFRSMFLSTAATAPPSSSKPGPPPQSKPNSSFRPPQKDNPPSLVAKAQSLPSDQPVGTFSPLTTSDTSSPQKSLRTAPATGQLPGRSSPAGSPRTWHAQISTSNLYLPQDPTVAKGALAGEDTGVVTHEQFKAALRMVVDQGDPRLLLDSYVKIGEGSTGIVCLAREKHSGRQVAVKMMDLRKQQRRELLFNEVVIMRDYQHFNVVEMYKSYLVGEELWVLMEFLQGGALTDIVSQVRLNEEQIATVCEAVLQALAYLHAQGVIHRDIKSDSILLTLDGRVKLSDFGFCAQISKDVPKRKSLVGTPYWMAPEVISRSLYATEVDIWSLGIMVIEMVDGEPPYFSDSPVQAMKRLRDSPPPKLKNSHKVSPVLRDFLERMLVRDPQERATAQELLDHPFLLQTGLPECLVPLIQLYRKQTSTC
kinases (KINOMEscan panel) (Homo sapiens, UniProt Q5S007, G2019S), sequence (Q5S007 whole entry G2019S): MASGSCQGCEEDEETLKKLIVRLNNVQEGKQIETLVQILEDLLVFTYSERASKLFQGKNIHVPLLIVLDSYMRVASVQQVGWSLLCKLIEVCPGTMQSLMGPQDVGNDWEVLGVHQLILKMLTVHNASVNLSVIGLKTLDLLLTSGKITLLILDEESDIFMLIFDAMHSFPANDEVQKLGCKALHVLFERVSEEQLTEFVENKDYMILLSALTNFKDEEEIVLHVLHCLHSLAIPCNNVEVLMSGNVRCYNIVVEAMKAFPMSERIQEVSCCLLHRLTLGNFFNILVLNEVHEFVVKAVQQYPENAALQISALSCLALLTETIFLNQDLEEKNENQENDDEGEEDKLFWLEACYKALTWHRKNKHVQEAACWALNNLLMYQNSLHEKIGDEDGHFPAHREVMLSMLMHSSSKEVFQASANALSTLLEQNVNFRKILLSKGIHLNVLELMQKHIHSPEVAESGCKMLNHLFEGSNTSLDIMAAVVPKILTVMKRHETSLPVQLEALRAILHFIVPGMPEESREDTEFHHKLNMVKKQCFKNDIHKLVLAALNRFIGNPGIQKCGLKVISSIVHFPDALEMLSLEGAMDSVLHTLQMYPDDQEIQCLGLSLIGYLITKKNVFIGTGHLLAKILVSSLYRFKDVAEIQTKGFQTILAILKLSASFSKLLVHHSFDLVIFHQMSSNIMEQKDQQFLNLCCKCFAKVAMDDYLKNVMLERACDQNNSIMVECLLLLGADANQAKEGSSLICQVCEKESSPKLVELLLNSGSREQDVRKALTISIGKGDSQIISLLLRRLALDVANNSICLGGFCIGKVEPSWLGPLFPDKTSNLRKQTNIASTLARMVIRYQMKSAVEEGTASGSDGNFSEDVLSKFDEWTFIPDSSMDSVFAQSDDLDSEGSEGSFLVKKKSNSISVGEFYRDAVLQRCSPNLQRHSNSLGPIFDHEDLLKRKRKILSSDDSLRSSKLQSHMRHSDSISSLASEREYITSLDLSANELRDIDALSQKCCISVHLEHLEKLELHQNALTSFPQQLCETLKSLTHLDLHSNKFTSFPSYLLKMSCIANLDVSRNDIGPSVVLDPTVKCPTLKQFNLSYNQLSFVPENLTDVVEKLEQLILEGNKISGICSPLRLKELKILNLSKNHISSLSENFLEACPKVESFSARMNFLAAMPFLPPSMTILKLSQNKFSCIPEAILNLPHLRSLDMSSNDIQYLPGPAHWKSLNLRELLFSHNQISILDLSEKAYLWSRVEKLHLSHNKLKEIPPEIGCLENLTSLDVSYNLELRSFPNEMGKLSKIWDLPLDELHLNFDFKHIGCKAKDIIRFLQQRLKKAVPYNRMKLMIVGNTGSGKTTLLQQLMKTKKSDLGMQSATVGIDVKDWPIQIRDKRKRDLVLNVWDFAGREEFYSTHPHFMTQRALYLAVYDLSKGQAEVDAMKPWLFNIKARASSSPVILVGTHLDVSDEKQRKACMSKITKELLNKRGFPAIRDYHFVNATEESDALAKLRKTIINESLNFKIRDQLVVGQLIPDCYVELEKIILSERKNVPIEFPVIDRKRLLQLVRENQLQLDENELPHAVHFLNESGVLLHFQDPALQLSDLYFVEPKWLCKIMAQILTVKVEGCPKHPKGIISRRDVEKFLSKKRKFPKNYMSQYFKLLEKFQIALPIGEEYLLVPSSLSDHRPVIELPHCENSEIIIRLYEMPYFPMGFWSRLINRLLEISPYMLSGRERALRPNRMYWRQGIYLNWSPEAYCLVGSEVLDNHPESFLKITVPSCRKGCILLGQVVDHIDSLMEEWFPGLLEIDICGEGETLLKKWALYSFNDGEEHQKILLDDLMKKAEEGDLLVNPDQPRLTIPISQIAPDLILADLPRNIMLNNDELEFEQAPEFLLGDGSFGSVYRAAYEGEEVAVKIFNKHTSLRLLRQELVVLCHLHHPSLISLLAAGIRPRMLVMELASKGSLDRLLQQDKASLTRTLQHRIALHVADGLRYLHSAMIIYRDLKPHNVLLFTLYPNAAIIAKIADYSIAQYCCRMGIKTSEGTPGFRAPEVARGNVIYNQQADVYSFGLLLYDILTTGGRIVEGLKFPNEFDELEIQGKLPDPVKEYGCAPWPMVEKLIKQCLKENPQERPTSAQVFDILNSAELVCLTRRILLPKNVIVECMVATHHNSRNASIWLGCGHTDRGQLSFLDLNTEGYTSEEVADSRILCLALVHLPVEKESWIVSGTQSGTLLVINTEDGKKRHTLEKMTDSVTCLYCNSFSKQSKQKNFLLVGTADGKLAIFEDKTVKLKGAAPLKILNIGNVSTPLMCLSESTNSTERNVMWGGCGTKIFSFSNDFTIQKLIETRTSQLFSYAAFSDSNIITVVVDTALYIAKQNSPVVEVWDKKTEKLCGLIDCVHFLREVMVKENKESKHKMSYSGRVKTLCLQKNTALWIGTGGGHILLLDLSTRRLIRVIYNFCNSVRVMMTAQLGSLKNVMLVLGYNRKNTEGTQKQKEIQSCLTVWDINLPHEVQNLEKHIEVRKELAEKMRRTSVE

As to `Cc1cccc(-c2nc(N(C)c3ccc4ncsc4c3)c3ccccc3n2)n1` [NK-161], in experiment [1], the “KINOMEscan TLK1” value is 0. The “KINOMEscan JAK2(JH1domain-catalytic)” value in experiment [2] was found to be 0. Further, the “KINOMEscan ERBB3” value in experiment [3] was 11. Moreover, the “KINOMEscan DYRK1A” value in [4] is 20. The “KINOMEscan ROS1” value in experiment [5] amounted to 0. In addition, in experiment [6], the “KINOMEscan PAK6” value was 0. For the same molecule, the “KINOMEscan CDK19” value in [7] came to 4. Moreover, the “KINOMEscan GRK3” value in experiment [8] is reported as 25. In addition, in [9], the “KINOMEscan AURKC” value amounted to 0. Further, in experiment [10], the “KINOMEscan KIT(V559D,V654A)” value came to 4. Further, in experiment [11], the “KINOMEscan DAPK1” value is on record as 0. For the same molecule, in [12], the “KINOMEscan ABL1(Q252H)-nonphosphorylated” value is 0 and the “KINOMEscan ABL1(Q252H)-phosphorylated” value was found to be 0. For the same molecule, the “KINOMEscan WEE1” value in [13] stood at 0. In experiment [14], the “KINOMEscan LRRK2(G2019S)” value is on record as 31.

For the molecule `Cc1cccc(-c2nc(Nc3ccc4nn(C)cc4c3)c3ccccc3n2)n1` [NK167], the “KINOMEscan TLK1” value in experiment [1] was 0. Moreover, in experiment [2], the “KINOMEscan JAK2(JH1domain-catalytic)” value worked out at 0. In experiment [3], the “KINOMEscan ERBB3” value was 0. The “KINOMEscan DYRK1A” value in experiment [4] is 0. The “KINOMEscan ROS1” value in experiment [5] amounted to 0. Also, the “KINOMEscan PAK6” value in experiment [6] is on record as 0. Further, the “KINOMEscan CDK19” value in experiment [7] was determined as 24. Besides, the “KINOMEscan GRK3” value in [8] is 0. The “KINOMEscan AURKC” value in experiment [9] was 0. For the same molecule, in [10], the “KINOMEscan KIT(V559D,V654A)” value came out at 15. Besides, the “KINOMEscan DAPK1” value in [11] was 0. In [12], the “KINOMEscan ABL1(Q252H)-nonphosphorylated” value worked out at 0 and the “KINOMEscan ABL1(Q252H)-phosphorylated” value came out at 0. Besides, the “KINOMEscan WEE1” value in [13] was found to be 0. The “KINOMEscan LRRK2(G2019S)” value in [14] is on record as 39.
